Structures can show the parent of a compound that is named as a salt.
The compounds below were run on SB.msgc-1 (assay: AC50 for growth inhibition (viability) (log10 M); higher = less potent). Conditions: SB.msgc-1 (sporadic gastric cancer).
Procedure, shortened: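 In 1536-well plates, each well held 500 patient-derived gastric cancer cells (hereditary or sporadic) in 5 μL medium. Compound in DMSO, 23 nL per well, was pinned in 11 threefold dilutions starting at a final 46 μM. Following 48 h of exposure, cells had CellTiter-Glo for 30 min at room temperature before ViewLux luminescence reading. Only high-quality curve classes from four-parameter fits of DMSO-normalised viability gave the log half-maximal activity concentration.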
In the case of `CN(C)[C@H]\1[C@@H]2C[C@H]3C(=C(O)\[C@]2(O)C(=O)\C(=C1O)C(N)=O)/C(=O)C4=C(O)C=CC=C4[C@@]3(C)O` [Tetracycline hydrochloride], the “AC50 for growth inhibition (log10 M)” value is reported as -5.18.
With `CC(=O)[C@H]1CC[C@H]2[C@@H]3CCC4=CC(=O)CC[C@]4(C)[C@H]3CC[C@]12C` [Progesterone] the “AC50 for growth inhibition (log10 M)” value was -4.78.
`Cc1cnc(C(=O)NCCc2ccc([S+](=O)([O-])NC(=O)NC3CCCCC3)cc2)cn1` [Glipizide] was tested, and the “AC50 for growth inhibition (log10 M)” value was -4.78.
In the case of `NC(=O)c1nnn(Cc2cc(Cl)c(C(=O)c3ccc(Cl)cc3)c(Cl)c2)c1N` [Carboxyamidotriazole], the “AC50 for growth inhibition (log10 M)” value is reported as -5.03.
For `CCOC(=O)c1ncn2c1CN(C)C(=O)c1cc(F)ccc1-2` [Flumazenil], the “AC50 for growth inhibition (log10 M)” value was -4.63.
`CSCC[C@H](NC(=O)[C@H](Cc1c[nH]c2ccccc12)NC(=O)CCNC(=O)OC(C)(C)C)C(=O)N[C@@H](CC(=O)O)C(=O)N[C@@H](Cc1ccccc1)C(N)=O` [Pentagastrin] was tested, and the “AC50 for growth inhibition (log10 M)” value was -5.28.
With `COC1=CC=CC=C1C2=CC=CC(=C2)C/3=C(O)/C4=CC(=C(Cl)C=C4NC3=O)C#N` [FASN MRK] the “AC50 for growth inhibition (log10 M)” value was -4.37.
With `COc1ccc2c(c1)CC[C@@H](CN(C)CC(=O)O)[C@H]2c1ccccc1` the “AC50 for growth inhibition (log10 M)” value was -5.63.
For `c1cncc(CN2CCC(n3ncc4c(N5CCOCC5)nc(-c5ccc6[nH]ccc6c5)nc43)CC2)c1` [WAY-600], the “AC50 for growth inhibition (log10 M)” value was -4.63.
With `CC(C)(Sc1cc(C(C)(C)C)c(O)c(C(C)(C)C)c1)Sc1cc(C(C)(C)C)c(O)c(C(C)(C)C)c1` [Probucol] the “AC50 for growth inhibition (log10 M)” value was -5.58.
With `COc1cc(OC2CCN(C)CC2)ccc1Nc1ncc2c(n1)n(C1CCCC1)c(=O)n2C` [AZ-3146] the “AC50 for growth inhibition (log10 M)” value was -4.78.
`CCOC(=O)C(C)OC1=CC=CC2=C1\C=C/N(CC(=O)NC3=CC=C4OCCOC4=C3)C2=O` (stereo unspecified) was tested, and the “AC50 for growth inhibition (log10 M)” value was -5.18.
`Fc1ccc(Cl)cc1-c1nc(Nc2ccncc2)c2nccnc2n1` [SD-208] was tested, and the “AC50 for growth inhibition (log10 M)” value was -4.93.
`CC1(C)Cc2c(sc(NC(=S)NC(=O)c3ccccc3)c2C(=O)O)CO1` was tested, and the “AC50 for growth inhibition (log10 M)” value was -4.53.
In the case of `Clc1ccccc1C(c1ccccc1)(c1ccccc1)n1cccn1` [TRAM-34], the “AC50 for growth inhibition (log10 M)” value is reported as -5.88.
With `Cc1csc(-c2nnc(Nc3ccc(Oc4ncccc4-c4ccnc(N)n4)cc3)c3ccccc23)c1` [AMG-900] the “AC50 for growth inhibition (log10 M)” value was -4.68.
`COC(=O)\C1=C\CCN(C)C1` [Arecoline] was tested, and the “AC50 for growth inhibition (log10 M)” value was -4.68.
In the case of `NCCCC(N)(C(=O)O)C(F)F` (stereo unspecified) [Eflornithine Hydrochloride], the “AC50 for growth inhibition (log10 M)” value is reported as -4.78.
With `CNC(=O)C1=CC=C(C)C(=C1)N2C(=C/C(=C(/Br)C2=O)OCC3=C(F)C=C(F)C=C3)\C` the “AC50 for growth inhibition (log10 M)” value was -4.98.
In the case of `O=C1\C=C/C[C@@H]2[C@H]3CCCN4CCC[C@@H](CN12)[C@@H]34` [Sophocarpine], the “AC50 for growth inhibition (log10 M)” value is reported as -4.78.
For `CNC1[C@@H](O)C(O[C@@H]2C(O)C(O[C@H]3O[C@H]([C@@H](C)NC)CC[C@H]3N)[C@@H](N)C[C@H]2N)OC[C@]1(C)O` (stereo partly specified) [Gentamycin sulfate], the “AC50 for growth inhibition (log10 M)” value was -4.73.
In the case of `CCCCCCCCOc1ccccc1C(=O)Nc1ccc(C(=O)OCC[N+](C)(CC)CC)cc1` [Octylonium bromide], the “AC50 for growth inhibition (log10 M)” value is reported as -4.68.
With `NC12CC3CC(CC(C3)C1)C2` [Amantadine hydrochloride] the “AC50 for growth inhibition (log10 M)” value was -4.68.
`CC(C)(C)C1=NC2=C([NH]1)C3=CC=C(F)C=C3C4=C2\C=C/NC4=O` [Merck 5] was tested, and the “AC50 for growth inhibition (log10 M)” value was -5.33.
In the case of `c1cc(N[C@@H]2CCNC2)nc(-c2cnc3ccc(-c4cn[nH]c4)cn23)c1`, the “AC50 for growth inhibition (log10 M)” value is reported as -4.68.
For `CNc1nc(-c2ccc3c(N)n[nH]c3c2)cc(N2C[C@@H](C(=O)NC3CCCCC3)CC[C@H]2C)n1`, the “AC50 for growth inhibition (log10 M)” value was -4.68.
For `CN1CCN(c2ccc([N+](=O)[O-])c3no[n+]([O-])c23)CC1`, the “AC50 for growth inhibition (log10 M)” value was -4.63.
In the case of `COCC1(CO)C(=O)C2CCN1CC2` (stereo unspecified) [APR-246], the “AC50 for growth inhibition (log10 M)” value is reported as -4.88.
For `Cc1cccc(CN2CCN(C(c3ccccc3)c3ccc(Cl)cc3)CC2)c1` (stereo unspecified) [Meclizine hydrochloride], the “AC50 for growth inhibition (log10 M)” value was -4.68.
With `NC\1=N\C(=O)N(\C=C1)[C@@H]2O[C@H](CO)[C@@H](O)[C@@H]2O` [Cytarabine] the “AC50 for growth inhibition (log10 M)” value was -7.18.
In the case of `CC(=O)O[C@H]1C[C@@H]2CC[C@@H]3[C@H](CC[C@@]4(C)[C@H]3C[C@H]([N+]3(C)CCCCC3)[C@@H]4OC(C)=O)[C@@]2(C)C[C@@H]1[N+]1(C)CCCCC1` [Pancuronium bromide], the “AC50 for growth inhibition (log10 M)” value is reported as -5.53.
With `COc1cc(Cl)cn2c(-c3cccc(NC4CNC4)n3)cnc12` the “AC50 for growth inhibition (log10 M)” value was -4.68.
In the case of `Cc1nc(Nc2ncc(C(=O)Nc3c(C)cccc3Cl)s2)cc(N2CCN(CCO)CC2)n1` [Dasatinib], the “AC50 for growth inhibition (log10 M)” value is reported as -5.73.
With `COC(=O)c1ccc2c(c1)NC(=O)/C2=C(\Nc1ccc(N(C)C(=O)CN2CCN(C)CC2)cc1)c1ccccc1` [Vargatef] the “AC50 for growth inhibition (log10 M)” value was -5.28.
With `COc1ccc(COc2cc3oc(=O)c4cc(C(C)O)ccc4c3cc2OC)cc1` (stereo unspecified) the “AC50 for growth inhibition (log10 M)” value was -4.63.
In the case of `CC(=O)N(C)c1cccc(-c2ccnc3c(C(=O)c4cccs4)cnn23)c1` [Indiplon], the “AC50 for growth inhibition (log10 M)” value is reported as -4.68.
In the case of `CC[P](CC)(CC)=[Au][S][C@@H]1OC(COC(C)=O)[C@@H](OC(C)=O)[C@H](OC(C)=O)C1OC(C)=O` (stereo partly specified) [Auranofin], the “AC50 for growth inhibition (log10 M)” value is reported as -5.53.
For `C/C(=N\NC(=S)N1CCC1)c1ccccn1`, the “AC50 for growth inhibition (log10 M)” value was -5.73.
`CCOC(=O)Nc1ccc(NCc2ccc(F)cc2)cc1N` [Retigabine] was tested, and the “AC50 for growth inhibition (log10 M)” value was -4.83.
`C[C@]\12CC[C@H](O)CC1=C/C[C@@H]3[C@@H]2CC[C@@]\4(C)[C@H]3C\C=C4C5=CN=CC=C5` [Abiraterone] was tested, and the “AC50 for growth inhibition (log10 M)” value was -5.19.
`O=C(O)c1ccc(-n2nc(-c3ccccc3O)nc2-c2ccccc2O)cc1` [Deferasirox] was tested, and the “AC50 for growth inhibition (log10 M)” value was -4.93.
In the case of `N[C@@H](Cc1c[nH]c2ccc(O)cc12)C(=O)O` [5-Hydroxytryptophan], the “AC50 for growth inhibition (log10 M)” value is reported as -4.68.
With `Nc1ncnc2c1ncn2[C@@H]1O[C@H](CO)C[C@H]1O` [Cordycepin] the “AC50 for growth inhibition (log10 M)” value was -4.73.
In the case of `O=C(O)c1ccc2c(c1)nc(Nc1cccc(Cl)c1)c1ccncc12` [Silmitasertib], the “AC50 for growth inhibition (log10 M)” value is reported as -4.93.
In the case of `COc1ccc(-c2c(-c3ccc(O)cc3O)n[nH]c2C)cc1` [PDHK RIKEN], the “AC50 for growth inhibition (log10 M)” value is reported as -4.37.
`COC1=CC=C(C=C1)C/2=C(OC3O[C@@H](C)[C@H](O)[C@@H](O)[C@H]3O)/C(=O)C4=C(O2)C(=C(OC5O[C@H](CO)[C@@H](O)[C@H](O)[C@H]5O)C=C4O)CC=C(C)C` (stereo partly specified) [Icariin] was tested, and the “AC50 for growth inhibition (log10 M)” value was -4.93.
For `C[C@]12CC[C@H]3[C@@H](CC(=C)\C4=C\C(=O)\C=C/[C@]34C)[C@@H]1CCC2=O` [Exemestane], the “AC50 for growth inhibition (log10 M)” value was -4.83.
`O=C(N[C@@H](c1ccccc1)[C@@H]1CCCCN1)c1cccc(C(F)(F)F)c1Cl` was tested, and the “AC50 for growth inhibition (log10 M)” value was -5.88.
`COc1cc([C@@H]2c3cc4c(cc3[C@@H](O[C@@H]3O[C@@H]5CO[C@@H](C)O[C@H]5[C@H](O)[C@H]3O)[C@H]3COC(=O)[C@H]23)OCO4)cc(OC)c1O` [Etoposide] was tested, and the “AC50 for growth inhibition (log10 M)” value was -5.33.
For `CNC(=O)c1cc(Oc2ccc(NC(=O)Nc3cc(C(C)(C)C)nn3-c3ccc4ncccc4c3)c(F)c2)ccn1` [DCC-2036], the “AC50 for growth inhibition (log10 M)” value was -5.63.
`COc1ccc2c(c1)CN(C)CC2c1ccc(Cl)c(Cl)c1` (stereo unspecified) [Diclofensine] was tested, and the “AC50 for growth inhibition (log10 M)” value was -4.73.
For `FC1=CC=C(CN2\C=C/C=C(/C(=O)N[C@@H](COC3=CC4=C(NC(=O)N4)C=C3)C5=CC=CC=C5)C2=O)C=C1F` [PDK1 inhibitor], the “AC50 for growth inhibition (log10 M)” value was -4.68.
With `CCC1=C[C@@H]2CN(C1)Cc1c([nH]c3ccccc13)[C@@](C(=O)OC)(c1cc3c(cc1OC)N(C)[C@H]1[C@@](O)(C(=O)OC)[C@H](OC(C)=O)[C@]4(CC)C=CCN5CC[C@]31[C@@H]54)C2` [Vinorelbine] the “AC50 for growth inhibition (log10 M)” value was -7.08.
In the case of `CCCOc1ccc2[nH]c(NC(=O)OC)nc2c1` [Oxibendazole], the “AC50 for growth inhibition (log10 M)” value is reported as -7.83.
With `Clc1ccc(C(c2ccc(Cl)cc2)[n+]2ccn(CC(OCc3ccc(Cl)cc3Cl)c3ccc(Cl)cc3Cl)c2)cc1` (stereo unspecified) [Calmidazolium chloride] the “AC50 for growth inhibition (log10 M)” value was -4.68.
`CCOC(=O)c1c(CSc2ccccc2)n(C)c2cc(Br)c(O)c(CN(C)C)c12` [Arbidol] was tested, and the “AC50 for growth inhibition (log10 M)” value was -4.63.
With `C[S+](=O)([O-])N(Cc1ccco1)CC(O)Cn1c2ccccc2c2ccccc21` (stereo unspecified) [KL001] the “AC50 for growth inhibition (log10 M)” value was -4.68.
For `Cc1ccc(Nc2cc(-c3cccc(N4C(=O)c5ccccc5C4=O)c3)ncn2)cc1N[S+](C)(=O)[O-]` [CDK9 inhibitor], the “AC50 for growth inhibition (log10 M)” value was -4.63.
`CCC[C@H](Nc1nc(-c2ccc(NC(=O)NCC)c(OC)c2)ncc1C)c1cccnc1` [Lexibulin hydrochloride] was tested, and the “AC50 for growth inhibition (log10 M)” value was -7.83.
For `Cc1ccc([S+](=O)([O-])Nc2nc3ccccc3nc2Nc2ccc3nsnc3c2)cc1` [XL-147], the “AC50 for growth inhibition (log10 M)” value was -6.19.
In the case of `COc1cc(/C=C/C(=O)CC(=O)/C=C/c2ccc(O)c(OC)c2)ccc1O` [Curcumin], the “AC50 for growth inhibition (log10 M)” value is reported as -4.37.
With `NC(=O)Nc1cc(-c2cccc(F)c2)sc1C(=O)N[C@H]1CCCNC1` [AZD-7762] the “AC50 for growth inhibition (log10 M)” value was -6.73.
For `CCNC(=O)C[C@H]1/N=C(/C2=CC=C(Cl)C=C2)C3=CC(=CC=C3[N]4C(=NN=C14)C)OC`, the “AC50 for growth inhibition (log10 M)” value was -5.03.
For `C[S+]([O-])c1ccc(-c2nc(-c3ccc(F)cc3)c(-c3ccncc3)[nH]2)cc1` (stereo unspecified), the “AC50 for growth inhibition (log10 M)” value was -4.62.
For `O=C/1\C=C(/OC(=C1)/C2=C3SC4=C(SC3=CC=C2)C=CC=C4)N5CCOCC5` [KU-0064], the “AC50 for growth inhibition (log10 M)” value was -4.63.
For `CCc1c(O)cc(O)c(C(=O)c2ccc(OCCN3CCOCC3)c(OC)c2)c1CC(=O)N(CCOC)CCOC` [KW-2478], the “AC50 for growth inhibition (log10 M)” value was -6.58.

— the supplement of paper PMC5412046
